# Experimental data as given in patent publication US20140328882A1, “WHEAT GERM EXTRACT OBTAINED BY PROTEASE HYDROLYSIS AND MEDICAL USE THEREOF” (BIROPHARMA UK LTD, priority 2011, published 2014).
# Test system: colon inflammation induced by 2,4,6 TNBS
# Assay: Colon-inflammatory model induced by 2,4,6 TNBS in rats
# Assay type: in vivo, Wistar (CD) male rats
# Conditions: PABD 2 g/kg/day p.o., infliximab 3.0 mg/kg/day, SASP 50 mg/kg/day; for Body weight change (body weight relative to 100% before TNBS): 2,4,6 TNBS 10 mg/rat into colon, evaluated third day, TNBS alone 91.8%; for Seriousness of inflammation (0-11 scale) / Extension of mucous membrane lesions / TNF-α level: 2,4,6 TNBS 10 mg/rat, third day; for Seriousness of inflammation (0-11 scale): TNBS alone 7.6; for Extension of mucous membrane lesions: TNBS alone 60.2%; for TNF-α level: control 12.7, TNBS alone 420.4
# From the text: Examination of Anti-Inflammatory Effect in Colon-Inflammatory Model Induced by TNBS in the Case of Rats.
# The 2,4,6 Trinitrobenzene-sulphonic-acid (2,4,6 TNBS) induction method represents well the pathological changes typical of patients suffering e.g. from Crohn's disease, so this model is well known and accepted in IBD-studies. The method described in Morris G. P. et al. “Hapten-induced model of chronic inflammation and ulceration in the rat colon” Gastroenterology 1989., 96(3); 795-803 was followed.
# Examinations were made in Wistar (CD) male rats. Nr: 10-10/groups.
# PABD powder was produced as described in Example 2; DH % of it's protein fraction was 20%.
# 2,4,6 TNBS=2,4,6 Trinitrobenzene-sulphonic-acid in solution.
# During the method 2,4,6 TNBS (10 mg/rat) was introduced after 12 hours starving in aether-anaesthesia into the colon. Inflammation reach the maximum on the third day. The animals were sacrificed by cervalis dislocation and the results were evaluated.
molecule,measurement,value
"O=C(O)c1cc(/N=N/c2ccc(S(=O)(=O)Nc3ccccn3)cc2)ccc1O [SASP, Sulfasalazine]",Body weight change (body weight relative to 100% before TNBS),100.8%
same,Seriousness of inflammation (0-11 scale),5.8
same,Extension of mucous membrane lesions,39.7%
same,TNF-α level,236.1 pg/mg protein
Infliximab: biologically active agent used in the treatment of IBD; comparator treatment,Body weight change (body weight relative to 100% before TNBS),100.0%
same,Seriousness of inflammation (0-11 scale),5.4
same,Extension of mucous membrane lesions,36.4%
same,TNF-α level,212.0 pg/mg protein
